The record followed here is ChEMBL document CHEMBL4312002, “Impact of hydroxy moieties at the benzo[7]annulene ring system of GluN2B ligands: Design, synthesis and biological evaluation” (Bioorg Med Chem, 2019).

The nature of data set [1]: Displacement of [3H]ifenprodil from GluN1A/GluN2B (unknown origin) expressed in mouse L(tk-) cell membranes after 120 mins by solid scintillation counting method. Also on record: species or system Homo sapiens. Background: In a radioligand displacement assay an active substance lowers the binding of a labelled ligand.
Data set [2] in a line: Cytoprotection against glutamate/glycine-induced cytotoxicity against mouse LTK cells expressing GluN1a/GluN2B preincubated 30 mins followed by glutamate/glycine addition and measured after 6 hrs by LDH assay. The format is functional, cell-based.
The species entered for another data set is Sus scrofa. The data set is described as follows: Displacement of [3H]-(+)-MK-801 from PCP binding site of NMDA receptor in pig brain cortex membranes at 1 uM after 120 mins by solid scintillation counting method relative to control. The data set is classed as cell membranes.
Data set [3] has as its target Sigma non-opioid intracellular receptor 1 (Cavia porcellus, UniProt Q60492). The data set is described as follows: Displacement of [3H]-(+)-pentazocine from sigma1 receptor in guinea pig brain cortex membranes incubated for 120 mins by solid scintillation counting method. The data set is classed as cell membranes.
Data set [4] concerns the target T1, Sigma intracellular receptor 2 (Rattus norvegicus, UniProt Q5U3Y7).
T1 sequence (Q5U3Y7 whole entry): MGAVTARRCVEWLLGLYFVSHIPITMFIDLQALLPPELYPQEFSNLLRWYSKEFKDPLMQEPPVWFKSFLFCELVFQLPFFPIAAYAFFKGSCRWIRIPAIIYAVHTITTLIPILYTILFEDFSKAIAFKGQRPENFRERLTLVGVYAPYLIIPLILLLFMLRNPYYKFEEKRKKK
Put plainly: Displacement of [3H]di-o-tolylguanidine from sigma2 receptor in rat liver membranes measured after 120 mins by solid scintillation counting method. The data set is classed as cell membranes.

Data set [5] can be described thus: Cytoprotection against glutamate/glycine-induced cytotoxicity against mouse LTK cells expressing GluN1a/GluN2B at 10 uM measured after 30 mins by LDH assay relative to control. The format is functional.
Data set [6] is described as follows: Retention time of (2S,3S,4S,5R)-3,4,5-trihydroxy-6-(7-(methyl(3-phenylpropyl)amino)-6,7,8,9-tetrahydro-5H-benzo[7]annulen-5-yloxy)tetrahydro-2H-pyran-2-carboxylic acid metabolite in C57BL/6 mouse liver microsomes at 25 uM by LC-qTOF/MS analysis. The format is ADME, Microsome.
Data set [7] can be described thus: Drug metabolism in C57BL/6 mouse liver microsomes assessed as (2S,3S,4S,5R)-3,4,5-trihydroxy-6-(7-(methyl(3-phenylpropyl)amino)-6,7,8,9-tetrahydro-5H-benzo[7]annulen-5-yloxy)tetrahydro-2H-pyran-2-carboxylic acid formation at 25 uM incubated for 90 mins in presence of phase 1 and 2 cofactors NADPH and UDPGA by LC-qTOF/MS analysis. The format is ADME, Microsome. The settings on record: 1.5 h.

A short description of data set [8]: Drug metabolism in C57BL/6 mouse liver microsomes assessed as hydroxylation at aromatic ring at 25 uM incubated for 90 mins in presence of phase 1 cofactor NADPH by LC-qTOF/MS analysis. The data set is classed as ADME, Microsome. The settings on record: 1.5 h. On the technique in general: Liver microsomes are vesicles of endoplasmic reticulum, rich in cytochrome P450 enzymes.

A short description of data set [9]: Drug metabolism in C57BL/6 mouse liver microsomes assessed as hydroxylation at aliphatic ring at 25 uM incubated for 90 mins in presence of phase 1 cofactor NADPH by LC-qTOF/MS analysis. The data set is classed as ADME, Microsome. The settings on record: 1.5 h.
A short description of data set [10]: Drug metabolism in C57BL/6 mouse liver microsomes assessed as hydroxylation at aliphatic and aromatic ring at 25 uM incubated for 90 mins in presence of phase 1 cofactor NADPH by LC-qTOF/MS analysis. The data set is classed as ADME, Microsome. The settings on record: 1.5 h.
Data set [11] is described as follows: Drug metabolism in C57BL/6 mouse liver microsomes assessed as glucuronide metabolite formation at 25 uM incubated for 90 mins in presence of phase 1 and 2 cofactors NADPH and UDPGA by LC-qTOF/MS analysis. The data set is classed as ADME, Microsome. The settings on record: 1.5 h.
Data set [12] can be described thus: Retention time of compound in C57BL/6 mouse liver microsomes at 25 uM by LC-qTOF/MS analysis. The data set is classed as ADME, Microsome.
A further data set in a line: in vitro. The settings on record: C57BL/6, mouse, liver microsomes.
Data set [13] is described as follows: Cytoprotection against glutamate/glycine-induced cytotoxicity against mouse LTK cells expressing GluN1a/GluN2B assessed as inhibition of cell growth measured after 12 hrs by LDH assay. The format is functional, cell-based.
The target in data set [14] is Sigma non-opioid intracellular receptor 1 (Cavia porcellus) (UniProt Q60492). The data set is described as follows: Displacement of [3H]-(+)-pentazocine from sigma1 receptor in guinea pig brain cortex membranes at 1 uM incubated for 120 mins by solid scintillation counting method relative to control. The format is cell membranes.
Sequence of Sigma non-opioid intracellular receptor 1 (Cavia porcellus) (Q60492 whole entry): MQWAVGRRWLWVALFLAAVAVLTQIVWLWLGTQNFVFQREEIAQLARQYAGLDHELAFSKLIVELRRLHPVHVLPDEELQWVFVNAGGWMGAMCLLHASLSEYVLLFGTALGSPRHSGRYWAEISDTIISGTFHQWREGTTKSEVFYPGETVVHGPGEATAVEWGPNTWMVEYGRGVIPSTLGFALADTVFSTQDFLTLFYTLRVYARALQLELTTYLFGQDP

Sequence of Sigma non-opioid intracellular receptor 1 (Q60492 whole entry): as above
Description for in vitro: Metabolic stability in C57BL/6 mouse liver microsomes assessed as parent compound remaining at 25 uM incubated for 90 mins in presence of NADPH by LC-qTOF/MS analysis

For orientation: Ki means the dissociation constant of the complex between target and ligand, obtained from inhibition or displacement. Low readings indicate higher affinity, high ones lower affinity. Usually IC50 stands for the concentration that gives 50% inhibition. `Oc1ccc2c(c1)CCC(NCCCc1ccccc1)CC2` (stereo unspecified) came in with a Ki in data set [1] of 28 nM. The same molecule came in with an IC50 in data set [2] of more than 10000 nM.

Molecule `CC(C(O)c1ccc(O)cc1)N1CCC(Cc2ccccc2)CC1` (stereo unspecified) [IFENPRODIL] registered a Ki in [1] of 10 nM. This lies in the double-digit nanomolar range.

As a reminder, the inhibition is how much of the control response was suppressed. Read a low inhibition as a weak effect. `OC1Cc2ccccc2CCC1NCCCc1ccccc1` (mixture of isomers): the Ki in data set [1] was found to be 380 nM; in [3] it was 1300 nM; in data set [4], 100 nM. Also, in the data set listed under Sus scrofa, the inhibition was determined as 0%. The same molecule showed an Activity in data set [5] of 22%.

On to `CN(CCCc1ccccc1)C1CCc2ccccc2C(O[C@@H]2O[C@H](C(=O)O)[C@@H](O)[C@H](O)[C@H]2O)C1` (stereo partly specified), for which the Retention_time in data set [6] stood at 4.8 min.

One may read the fraction remaining as what is left of the initial amount, in per cent. A higher fraction remaining goes with less turnover. Turning to `CN(CCCc1ccccc1)C1CCc2ccccc2C(O)C1` (mixture of isomers), the results for the inhibition constant Ki in data set [1], in data set [3] and in data set [4] were 49 nM, 39 nM and 35 nM, respectively. This molecule returned an inhibition in the data set listed under Sus scrofa of 0%. Besides, half-maximal inhibition in [2] (IC50) required 580 nM. Further, the Drug metabolism entry in data set [7], in data set [8], in data set [9], in data set [10] and in [11] was “Metabolite_Detected” in each case. Besides, in data set [12], the Retention_time is 5.1 min. The molecule further gave an amount remaining at 1.5 h, 25 µM in the data set “in vitro” of 17%.

Molecule `COc1ccc2c(c1)CCC(NCCCc1ccccc1)CC2` (stereo unspecified) displayed a Ki in [1] of 10 nM. For the same molecule, the IC50 in [13] was 29 nM.

`c1ccc(CCCNC2CCc3ccccc3CC2)cc1`: the Ki in data set [1] was found to be 16 nM. The Activity in data set [5] is reported as 29%.

`C[C@@H](CN1CCC(Cc2ccccc2)CC1)[C@@H](O)c1ccc(O)cc1` returned a Ki in [1] of 170 nM. This molecule had an IC50 in [2] of 13 nM.

For the molecule `OC(CN1CCC(Cc2ccc(F)cc2)CC1)c1ccc(Cl)cc1` (stereo unspecified) [ELIPRODIL], the Ki in data set [1] turned out to be 13 nM.

In the data set listed under Sus scrofa, `OC1CC(NCCCCc2ccccc2)CCc2ccccc21` (mixture of isomers) showed an inhibition of 0%. Moreover, the results for the Ki in data set [3] and in data set [4] were 140 nM and 100 nM, respectively. The molecule also yielded an Activity in [5] of 12%.

Regarding `OC1CC(NCCCc2ccccc2)CCc2ccccc21` (mixture of isomers), the Ki turned out to be 77 nM in data set [1], 160 nM in data set [3] and 28 nM in [4]. Moreover, the inhibition in the data set listed under Sus scrofa amounted to 0%. The molecule also showed an IC50 in data set [2] of 1600 nM.

On to `Oc1ccc2c(c1)CCC(NCCCCc1ccccc1)CC2` (stereo unspecified), for which the Ki in [1] is 21 nM. Further, in data set [2], the IC50 amounted to 3000 nM.

Take `OC1Cc2ccccc2CCC1NCCCCc1ccccc1` (mixture of isomers): the Ki in data set [1] turned out to be 270 nM; in data set [3] it was 430 nM; in data set [4] it was 100 nM. Also, in the data set listed under Sus scrofa, the inhibition was 0%. Besides, the Activity in data set [5] is given as 0%.

In data set [1], `COc1ccc2c(c1)CC[C@@H](NCCCc1ccccc1)C[C@H]2O` (racemic) had a Ki of 16 nM. For the same molecule, the IC50 in data set [13] stood at 12 nM.

Turning to `OC1c2ccccc2CCC(NCCCc2ccccc2)C1O` (mixture of isomers), the Ki was determined as 2000 nM in data set [1] and 630 nM in data set [4]. Further, the inhibition in the data set listed under Sus scrofa worked out at 14%; in [14] it was 17%. This molecule registered an Activity in data set [5] of 41%.

As to `CN(CCCCc1ccccc1)C1CCc2ccccc2C(O)C1` (mixture of isomers), the Ki in data set [1] came to 64 nM; in data set [3], 33 nM; in [4] it was 66 nM. In the data set filed under Sus scrofa, the inhibition was determined as 0%. The molecule further yielded an Activity in data set [5] of 10%.
